Where two headings read alike, the source gives them in different places.
Tests used:
HaCaT keratinocytes = assay: Secretion of IL8 by HaCaT keratinocytes stimulated with TNFα (anti-inflammatory activity); format: cell-based, human; conditions: TNFα 10 ng/ml, 24 h; FIG. 4; in words
Description: The dosage of interleukin 8 is carried out from a sample taken from the supernatant according to the following method: • IL8 is evaluated by ELISA, Duoset IL8 (Ref. DY208E, R&D Systems).

human CD4+ lymphocytes = assay: Secretion of cytokines by human CD4+ lymphocytes stimulated with SEB (immuno-regulatory activity); format: cell-based; conditions: Lymphocyte, SEB 300 ng/ml, 24 h
NHEK keratinocytes = assay: Gene expression of inflammatory markers of atopic dermatitis in stimulated NHEK keratinocytes (PCR-Array); format: cell-based, human; conditions: 24 h, vs stimulated control
Description: The primary keratinocytes (NHEK, normal human epidermal keratinocytes) distributed in 24-well plates are preincubated for 1 hour with the active ingredients and then stimulated for 24 hours with a cocktail of 4 agonists giving the possibility of creating in vitro the physio-pathological environment of atopic dermatitis: 100 ng/ml IL4+100 ng/ml IL13+1 μg/ml Poly I:C+5 μg/ml Pam3CSK4: this model gives the possibility of inducing the inflammation mediated by the overexpressed Th2 cytokines in DA (IL4, IL13) and by the bacterial components (mimicked by Pam3CSK4, TLR-2 ligand) and viral components (mimicked by Poly I:C, TLR-3 ligand) of DA. Analysis of the gene expression of the markers of DA is conducted in a PCR-Array with 48 genes and repeated on 3 different donors of NHEK.
For the whole of the markers, the RQ (Relative Quantity) of less than 0.5, at 5 h or 24 h, indicates significant inhibition: • inhibition of the TSLP marker involved in the lymphocyte Th2 polarization and specific of AD; • inhibition of the inflammatory cytokines IL1A, IL8, CSF2, IFNB1, VEGF; • inhibition of the chemokines CCL, CXCL, involved in the recruitment, cutaneous infiltration, and activation of the inflammatory cells (leucocytes, lymphocytes, Th1 and Th2 lymphocytes, monocytes).

[1] = read-out: inhibition of the production of IL-2
[2] = read-out: inhibition of the production of IL-4
[3] = read-out: inhibition of the production of IL-17

For `CCCCCCCCCOC(=O)CC[C@H](N)C(=O)O` [Example 3, 5-(n-nonyl)-L-glutamate or 2-amino-5-(nonyloxy)-5-oxopentanoic acid], the “anti-inflammatory activity towards the production of IL-8” value (HaCaT keratinocytes) was “anti-inflammatory activity”, the inhibition at 300 µM (human CD4+ lymphocytes; [1]) was 63% and the inhibition at 300 µM (human CD4+ lymphocytes; [2]) was 70%. The inhibition at 300 µM (human CD4+ lymphocytes; [3]) was 54%.

Work on `CCCCCCCCCCCCOC(=O)CC[C@H](N)C(=O)O` [Example 4, 5-(n-dodecyl)-L-glutamate or 2-amino-5-(dodecyloxy)-5-oxopentanoic acid] yielded a melting point of 189.9 °C.

Compound `CCCCCCCCCCCCCCOC(=O)CC[C@H](N)C(=O)O` [Example 5, 5-(n-tetradecyl)-L-glutamate or 2-amino-5-oxo-5(tetradecyl)pentanoic acid] has a melting point of 184.8 °C.

`CCCCCCCCCCCCCCCCOC(=O)CC[C@H](N)C(=O)O` [Example 6, 5-(n-hexadecyl)-L-glutamate or 2-amino-5-(hexadecyloxy)-5-oxopentanoic acid] gave a melting point of 179.3 °C.

With `CCCCCCCCCCCCCCCCCCOC(=O)CC[C@H](N)C(=O)O` [Example 7, 5-(n-octadecyl)-L-glutamate or 2-amino-5-(octadecyloxy)-5-oxopentanoic acid] the melting point was 180.5 °C.

`CC(C)CCCC(C)CCOC(=O)CC[C@H](N)C(=O)O` (stereo partly drawn) [Example 8, 5-(3,7-dimethyloctyl)-L-glutamate or 2-amino-5(3,7-dimethyloctyloxy)-5-oxo-pentanoic acid] gave a melting point of 150.8 °C and an inhibition at 300 µM (human CD4+ lymphocytes; [1]) of 29%.

With `CCCCC(CC)COC(=O)CC[C@H](N)C(=O)O` (stereo partly drawn) [Example 12, 5-(2-ethylhexyl)-L-glutamate or 2-amino-5(2-ethylhexyloxy)-5-oxopentanoic acid] the “CCL2 (MCP-1) gene expression” value (NHEK keratinocytes; 100 μM) was 0.48 RQ, the “CCL3 (MIP-1α) gene expression” value (NHEK keratinocytes; 100 μM) was 0.51 RQ and the “CCL4 (MIP-1β) gene expression” value (NHEK keratinocytes; 100 μM) was 0.14 RQ. The “CCL5 (RANTES) gene expression” value (NHEK keratinocytes; 100 μM) was 0.42 RQ, the “CCL20 (MIP-3α) gene expression” value (NHEK keratinocytes; 100 μM) was 0.13 RQ and the “CSF2 (GMCSF) gene expression” value (NHEK keratinocytes; 100 μM) was 1.55 RQ. For the same compound, the “CXCL1 (GRO-α) gene expression” value (NHEK keratinocytes; 100 μM) was 0.33 RQ, the “CXCL2 (MIP-2α) gene expression” value (NHEK keratinocytes; 100 μM) was 0.06 RQ and the “CXCL9 (Gamma-interferon-induced monokine) gene expression” value (NHEK keratinocytes; 100 μM) was 0.20 RQ. The “CXCL10 (IP-10) gene expression” value (NHEK keratinocytes; 100 μM) was 0.18 RQ, the “CXCL11 (I-TAC) gene expression” value (NHEK keratinocytes; 100 μM) was 0.14 RQ and the “IFNB1 (Interferon beta 1) gene expression” value (NHEK keratinocytes; 100 μM) was 0.19 RQ. The “IL1A (Interleukin 1, alpha) gene expression” value (NHEK keratinocytes; 100 μM) was 0.53 RQ, the “IL8 (Interleukin 8) gene expression” value (NHEK keratinocytes; 100 μM) was 0.29 RQ and the “TSLP (Thymic stromal lymphopoietin) gene expression” value (NHEK keratinocytes; 100 μM) was 0.20 RQ. For the same compound, the “VEGFC (Vascular endothelial growth factor C) gene expression” value (NHEK keratinocytes; 100 μM) was 0.20 RQ, the “CCL3 (MIP-1α) gene expression” value (NHEK keratinocytes; 300 μM) was 0.06 RQ and the “CCL4 (MIP-1β) gene expression” value (NHEK keratinocytes; 300 μM) was 0.02 RQ. The “CCL5 (RANTES) gene expression” value (NHEK keratinocytes; 300 μM) was 0.20 RQ, the “CCL20 (MIP-3α) gene expression” value (NHEK keratinocytes; 300 μM) was 0.13 RQ and the “CSF2 (GMCSF) gene expression” value (NHEK keratinocytes; 300 μM) was 0.33 RQ. For the same compound, the “CXCL1 (GRO-α) gene expression” value (NHEK keratinocytes; 300 μM) was 0.36 RQ, the “CXCL2 (MIP-2α) gene expression” value (NHEK keratinocytes; 300 μM) was 0.32 RQ and the “CXCL9 (Gamma-interferon-induced monokine) gene expression” value (NHEK keratinocytes; 300 μM) was 0.29 RQ. For the same compound, the “CXCL10 (IP-10) gene expression” value (NHEK keratinocytes; 300 μM) was 0.06 RQ, the “CXCL11 (I-TAC) gene expression” value (NHEK keratinocytes; 300 μM) was 0.15 RQ and the “IFNB1 (Interferon beta 1) gene expression” value (NHEK keratinocytes; 300 μM) was 0.26 RQ. For the same compound, the “IL1A (Interleukin 1, alpha) gene expression” value (NHEK keratinocytes; 300 μM) was 0.53 RQ, the “IL8 (Interleukin 8) gene expression” value (NHEK keratinocytes; 300 μM) was 0.18 RQ and the “TSLP (Thymic stromal lymphopoietin) gene expression” value (NHEK keratinocytes; 300 μM) was 0.54 RQ. For the same compound, the “VEGFC (Vascular endothelial growth factor C) gene expression” value (NHEK keratinocytes; 300 μM) was 0.50 RQ, the melting point was 157.9 °C and the inhibition at 300 µM (human CD4+ lymphocytes; read-out: inhibition of the production of IFNγ) was 77%. It also gave an inhibition at 300 µM (human CD4+ lymphocytes; read-out: inhibition of the production of IL1β) of 80%, an inhibition at 300 µM (human CD4+ lymphocytes; read-out: inhibition of the production of IL5) of 77% and an inhibition at 300 µM (human CD4+ lymphocytes; read-out: inhibition of the production of IL6) of 44%. For the same compound, the inhibition at 300 µM (human CD4+ lymphocytes; read-out: inhibition of the production of IL10) was 87%, the inhibition at 300 µM (human CD4+ lymphocytes; read-out: inhibition of the production of IL13) was 84% and the inhibition at 300 µM (human CD4+ lymphocytes; [1]) was 43%. It also gave an inhibition at 300 µM (human CD4+ lymphocytes; [2]) of 69%, an inhibition at 300 µM (human CD4+ lymphocytes; [3]) of 86% and an inhibition at 300 µM (human CD4+ lymphocytes; read-out: inhibition of the production of TNFα) of 18%.

With `N[C@@H](CCC(=O)O)C(=O)O` [glutamic acid, reference compound] the “anti-inflammatory activity towards the production of IL-8” value (HaCaT keratinocytes) was “not again found”.

Source: patent publication US9493401B2, “Glutamate derivatives for topical use as immunomodulatory active ingredient” (PIERRE FABRE DERMO-COSMETIQUE, priority 2012, dated 2016)
